The test system of one data set is Apis mellifera. Particulars: acute; dermal; mortality.
A further data set concerns Coturnix japonica. The note with it: acute, oral, mortality.
The test system of a further data set is Oncorhynchus mykiss. Particulars: acute; duration: 96 hours; mortality.
Another data set relates to Rattus norvegicus. The note with it: for LD50: acute, mortality.
The test system of a further data set is Aphidius rhopalosiphi. Put plainly: LR50; higher = less toxic. The note with it: not reported; mortality.
The subject of a further data set is Typhlodromus pyri. Put plainly: LR50; higher = less toxic. Particulars: not reported; mortality.

This note sets out measurements from EPA's ToxValDB 9.5 (doi:10.2903/j.efsa.2011.2020).

The structures appear in SMILES notation. Values after ≈ are worked out from the molar mass of the structure shown.

Consider `NC(=O)Cc1cccc2ccccc12` [1-Naphthaleneacetamide], for which the LD50 in the data set on Apis mellifera was over 100 µg/piece; with Coturnix japonica it was over 2000 mg/kg-day; with Mus musculus (acute, oral, F, mortality), 1930 mg/kg-day; with Rattus norvegicus (oral, M), 1660 mg/kg-day; with Rattus norvegicus (oral), over 5050 mg/kg-day. The LC50 stood at 4370 mg/kg-day in the data set on Coturnix japonica (diet) and 44 mg/L (≈ 238 µM) in the data set on Oncorhynchus mykiss. The NOAEL – broadly, the highest dose or exposure tested at which no adverse effect was seen – worked out at 195 mg/kg-day with Mus musculus (chronic, duration: 18 months, other); 43.8 mg/kg-day with Rattus norvegicus (chronic, duration: 2 years, organ weight); 15 mg/kg-day in the data set with Rattus norvegicus (developmental, development); 10 mg/kg-day with Rattus norvegicus (subchronic, duration: 90 days, oral, hematological); 5 mg/kg-day in the data set on Rattus norvegicus (subchronic, duration: 90 days, oral, organ weight). The LR50 with Aphidius rhopalosiphi and in the data set with Typhlodromus pyri was over 40 g/ha throughout.
